Data: US20040198789A1, “Lercanidipine/ARB/diuretic therapeutic combinations” (Recordati Ireland Limited, priority 2003, published 2004)
Where “and” joins values, the source holds several entries; their conditions need not be identical. Equal values may be shown once.

How the values were obtained:
[1] = tested on: reperfusion-induced hypertension in uninephrectomized anesthetized rats; experiment: Model of acute angiotensin-mediated renal hypertension in anesthetized rats (SBP, DBP, HR); format: in vivo, rat
isolated rat aorta = details: in vitro; even after repeated wash-out during 6 hours; cited from earlier work
[2] = cited from earlier work
[3] = tested on: reperfusion-induced hypertension in uninephrectomized anesthetized rats; experiment: Model of acute angiotensin-mediated renal hypertension in anesthetized rats (SBP, DBP, HR); format: in vivo, rat; remark: listed apart in the source
Experimental: Male Sprague-Dawley rats, weighing 250-300 g, were anaesthetized with pentobarbital sodium (35 mg/kg, i.p.) and placed on a thermic blanket. The temperature was maintained at 37° C. with a thermoregulator via a rectal probe. The animals were tracheotomized to facilitate spontaneous breathing. A polyethylene catheter was placed in the left jugular vein to allow for infusion of pentobarbital sodium to maintain anesthesia. The left femoral vein and artery were cannulated with polyethylene catheters to allow drugs administration and to monitor blood pressure, respectively.
Animals then underwent a left nephrectomy by excising the left kidney via a flank incision. The right kidney and renal vein, artery and ureter were then exposed via a right retroperitoneal incision, under a dissecting microscope. Silk threads were placed around both vessels and ureter. The cavity was then covered with Vaseline oil.
After 30-60 minutes of basal recordings of arterial blood pressure and heart rate the threads around the renal vessels and ureter were tied close to the renal hilum to induce complete renal ischemia of the right kidney. After 2 hours of ischemia, the threads were removed to allow renal reperfusion and urine output.
For irbesartan experiments and comparisons, control (vehicle) or drug (irbesartan (100 μg/kg), lercanidipine (7.5 μg/kg), or both lercanidipine (7.5 μg/kg) and irbesartan (100 μg/kg)) were administered intravenously at 5 min after reperfusion was begun.
Results were expressed as mean values ±S.E. (in the tables) and in percent change observed.
To evaluate the effects of drugs administration on blood pressure and heart rate within each group, two-way ANOVA and Dunnet's test were used (“within treatment”). To evaluate the statistical differences among the treatment groups, data are analyzed using a three-way ANOVA (analysis of variance) with repeated measures on factor time and pre-planned multiple comparisons. The analysis was performed using, for each treatment, delta values (log transformation). […] (“between treatments”).

[4] = following oral administration; cited from earlier work
[5] = between treatments, three-way ANOVA on delta values, lercanidipine 10 μg/kg, valsartan 30 μg/kg i.v.
[6] = within treatment vs […], lercanidipine 10 μg/kg or valsartan 30 μg/kg i.v.
[7] = between treatments, three-way ANOVA on delta values, lercanidipine 7.5 μg/kg, irbesartan 100 μg/kg i.v.
[8] = between treatments, three-way ANOVA on delta values, lercanidipine 7.5 μg/kg, olmesartan free acid 10 μg/kg i.v.
[9] = lercanidipine 7.5 μg/kg i.v., n=6, time 0 min, basal, pre-drug
[10] = lercanidipine 7.5 μg/kg i.v., n=6, time 120 min, end of ischemia, pre-drug
[11] = lercanidipine 7.5 μg/kg i.v., n=6, time 130 min, 5 min after drug
[12] = lercanidipine 7.5 μg/kg i.v., n=6, time 135 min, 10 min after drug
[13] = lercanidipine 7.5 μg/kg i.v., n=6, time 150 min, 25 min after drug
[14] = lercanidipine 7.5 μg/kg i.v., n=6, time 165 min, 40 min after drug
[15] = lercanidipine 7.5 μg/kg i.v., n=6, time 180 min, 55 min after drug
[16] = lercanidipine 7.5 μg/kg i.v., n=6, time […], 5 min reperfusion, pre-drug
[17] = lercanidipine 10 μg/kg i.v., n=5, time 0 min, basal, pre-drug
[18] = lercanidipine 10 μg/kg i.v., n=5, time 120 min, end of ischemia, pre-drug
[19] = lercanidipine 10 μg/kg i.v., n=5, time 130 min, 5 min after drug
[20] = lercanidipine 10 μg/kg i.v., n=5, time 135 min, 10 min after drug
[21] = lercanidipine 10 μg/kg i.v., n=5, time 150 min, 25 min after drug
[22] = lercanidipine 10 μg/kg i.v., n=5, time 165 min, 40 min after drug
[23] = lercanidipine 10 μg/kg i.v., n=5, time 180 min, 55 min after drug
[24] = lercanidipine 10 μg/kg i.v., n=5, time […], 5 min reperfusion, pre-drug

## COC(=O)C1=C(C)NC(C)=C(C(=O)OC(C)(C)CN(C)CCC(c2ccccc2)c2ccccc2)C1c1cccc([N+](=O)[O-])c1 (stereo not drawn) [lercanidipine, methyl 1,1,N-trimethyl-N-(3,3-diphenylpropyl)-2-aminoethyl 1,4-dihydro-2,6-dimethyl-4-(3-nitrophenyl)pyridine-3,5-dicarboxylate]
[1]; [5]
  Diastolic blood pressure: general differences among groups: p vs Vehicle: p < 0.01
  Heart rate: general differences among groups: p vs Vehicle: p < 0.05
  Systolic blood pressure: general differences among groups: p vs Vehicle: ns
[1]; lercanidipine 10 μg/kg, valsartan 30 μg/kg i.v., alone or together
  effect on heart rate (in words): positive chronotropic effect
[1]; [6]
  time of statistically significant decrease in diastolic blood pressure after administration: 5 to 55 min
Isolated rat aorta
  isolated rat aorta response to high K+: attenuated
[2]; hypertensive patients on lercanidipine
  tachycardia reported as a side effect, patients: 0-9%
[2]; patients administered lercanidipine
  heart palpitations, patients reporting: 0-9%
[3]; [7]
  Diastolic blood pressure: general differences among groups: p vs Irbesartan: ns
  Diastolic blood pressure: general differences among groups: p vs Vehicle: p < 0.05
  Heart rate differences among groups: p vs Irbesartan: p < 0.001
  Heart rate differences among groups: p vs Vehicle: p < 0.01
  Systolic blood pressure differences among groups: p vs Irbesartan: ns
  Systolic blood pressure differences among groups: p vs Vehicle: ns
[3]; [8]
  Diastolic blood pressure differences among treatment groups: p vs Olmesartan: ns
  Diastolic blood pressure differences among treatment groups: p vs Vehicle: p < 0.05
  Heart rate differences among treatment groups: p vs Olmesartan: p < 0.001
  Heart rate differences among treatment groups: p vs Vehicle: p < 0.01
  Systolic blood pressure differences among treatment groups: p vs Olmesartan: ns
  Systolic blood pressure differences among treatment groups: p vs Vehicle: ns
[3]; [5]
  Diastolic blood pressure: general differences among groups: p vs Valsartan: ns
  Heart rate: general differences among groups: p vs Valsartan: p < 0.01
  Systolic blood pressure: general differences among groups: p vs Valsartan: ns
[3]; [9]
  DBP: 75.7 ± 1.7 mmHg
  HR: 383.3 ± 12.0 beats/min
  SBP: 120.7 ± 3.5 mmHg
[3]; [10]
  DBP: 63.3 ± 2.9 mmHg
  HR: 381.7 ± 7.5 beats/min
  SBP: 105.2 ± 5.3 mmHg
[3]; [11]
  HR: 434.2 ± 15.3 b beats/min
  SBP: 136.7 ± 7.4 mmHg
[3]; [12]
  HR: 426.7 ± 14.3 b beats/min
  SBP: 140.7 ± 7.1 mmHg and 140.7 ± 7.1b mmHg
[3]; [13]
  HR: 411.7 ± 12.8 b beats/min
  SBP: 143.2 ± 7.2 mmHg
[3]; [14]
  HR: 411.7 ± 15.6 b beats/min
  SBP: 144.5 ± 9.1 mmHg
[3]; [15]
  HR: 410.0 ± 18.3 b beats/min
  SBP: 136.8 ± 8.4 mmHg and 136.8 ± 8.4b mmHg
[3]; [16]
  DBP: 117.2 ± 4.4 mmHg
  HR: 346.7 ± 8.4 beats/min
  SBP: 160.7 ± 8.5 mmHg
[3]; lercanidipine 7.5 μg/kg, irbesartan 100 μg/kg i.v., alone or together
  effect on heart rate (in words): increase in heart rate
[3]; lercanidipine 7.5 μg/kg, irbesartan 100 μg/kg i.v., alone or together, 5 min after reperfusion
  effect on blood pressure (in words): statistically significant decrease in both systolic and diastolic blood pressure
[3]; lercanidipine 7.5 μg/kg, olmesartan free acid 10 μg/kg i.v., alone or together
  effect on heart rate (in words): increase in heart rate
[3]; [17]
  DBP: 69.8 ± 4.1 mmHg
  HR: 350.0 ± 3.2 beats/min
  SBP: 133.8 ± 6.1 mmHg
[3]; [18]
  DBP: 64.6 ± 4.5 mmHg
  HR: 350.0 ± 3.5 beats/min
  SBP: 134.8 ± 6.2 mmHg
[3]; [19]
  DBP: 77.4 ± 4.1 b mmHg
  HR: 434.0 ± 27.9 b beats/min
  SBP: 149.2 ± 5.4 mmHg
[3]; [20]
  DBP: 77.8 ± 3.2 b mmHg
  HR: 438.0 ± 22.2 b beats/min
  SBP: 145.4 ± 5.0 b mmHg
[3]; [21]
  DBP: 76.4 ± 7.2 b mmHg
  HR: 425.0 ± 14.7 b beats/min
  SBP: 143.8 ± 5.5 b mmHg
[3]; [22]
  DBP: 78.4 ± 8.4 b mmHg
  HR: 423.0 ± 15.1 b beats/min
  SBP: 138.2 ± 8.6 b mmHg
[3]; [23]
  DBP: 76.2 ± 7.3 b mmHg
  HR: 421.0 ± 14.7 b beats/min
  SBP: 138.8 ± 4.9 b mmHg
[3]; [24]
  DBP: 105.6 ± 5.0 mmHg
  HR: 345.0 ± 5.5 beats/min
  SBP: 167.6 ± 4.0 mmHg
[3]; within treatment vs […], lercanidipine 7.5 μg/kg or olmesartan free acid 10 μg/kg i.v.
  time of statistically significant decrease in diastolic blood pressure after administration: 5 to 55 min
[3]; [6]
  time of statistically significant decrease in systolic blood pressure after administration: 10 to 55 min
[4]
  time of peak serum/plasma concentration: 2 to 3 h
